Test results reported in patent publication US9593305B2, “Differentiation of pluripotent stem cells” (Janssen Biotech, Inc., priority 2008, dated 2017).

Columns and labels:
Format in all cases: cell-based
[1] = system: H1 human embryonic stem cells; assay: Secondary assay: compound combined with individual growth factors or small molecules, no activin A (Example 5, Table 4); details: growth factor 50 ng/ml combined with 2.5 μM compound and Wnt3a, no activin A
Experimental: (§1) Clusters of H1 human embryonic stem cells were grown on reduced growth factor […]™ (Invitrogen; Cat #356231)-coated tissue culture plastic. Cells were passaged using collagenase (Invitrogen; Cat #Cat #17104-019) treatment and gentle scraping, washed to remove residual enzyme, and plated with even dispersal at a ratio of 1:1 (surface area) on reduced growth factor […]™-coated 96-well black plates (Packard ViewPlates; PerkinElmer; Cat #6005182) using volumes of 100 μl/well. Cells were allowed to attach as clusters and then recover log phase growth over a 1 to 3 day period, feeding daily with MEF conditioned medium supplemented with 8 ng/ml bFGF (R&D Systems; Cat #233-FB). Plates were maintained at 37° C., 5% CO2 in a humidified box throughout the duration of assay.
Other agents tested were purchased as follows: BMP-7 (Sigma; Cat #B1434), LY294002 (Cayman; Cat 70920), PD98059, U0126, U0124 (EMD Biosciences; Cat #453710), muscimol (Tocris; Cat #0289), biuculline (Tocris; Cat #0130), sodium butyrate (Sigma; Cat #B5887). All growth factors were solubilized in PBS with 0.1% BSA (Sigma; Cat #A7888) and stored frozen at −80° C. Small molecules were solubilized in 100% DMSO (Sigma; Cat #D2650) and stored frozen at −80° C. The compounds were available as 5 mM stocks in 96-well plate format, solubilized in 100% DMSO and stored at −80° C. The compounds of the present invention were further diluted to an intermediate concentration of 0.2 mM in 50 mM HEPES (Invitrogen; Cat #15630-080), 20% DMSO and stored at 4° C. All growth factors and inhibitors were prepared in a deep well, 96-well polypropylene plate, diluted to 5× intermediate stocks in DMEM:F12 base medium at the beginning of assay and stored at 4° C.
A secondary screening assay was conducted, testing in triplicate and feeding on alternate days over the four-day assay timeframe. Assays were initiated by aspirating culture medium from each well followed by three washes in PBS to remove residual growth factors and serum. Test volumes of 80 μl per well were added back containing DMEM:F12 base medium (Invitrogen; Cat #11330-032) supplemented with 0.625% FCS (HyClone; Cat #SH30070.03), 25 ng/ml Wnt3a (R&D Systems), and 3.125 μM compound plus 20 μl 5× stock of growth factor or small molecule to yield a final concentration of 0.5% FCS, 20 ng/ml Wnt3a, and 2.5 μM compound. […] Final assay concentrations of small molecules tested were as follows: muscimol (20 μM), PD98059 (1 μM), LY294002 (2.5 μM), 00124 (1 μM), U0126 (1 μM), sodium butyrate (0.5 mM). Positive control wells (100 μl/well) contained the same base medium supplemented with 0.5% FCS, 20 ng/ml Wnt3a and 100 ng/ml activin A. Negative control wells (100 μl/well) contained the same base medium with 0.5% FCS and 20 ng/ml Wnt3a, omitting activin A.
On day 3, wells were aspirated and fed with 80 μl DMEM:F12 base medium supplemented with 2.5% FCS (HyClone) and 3.125 μM cyclic aniline-pyridinotriazine compound plus 20 μl 5× stock of growth factors or small molecules per well to yield a final concentration of 2% FCS and 2.5 μM compound (omitting Wnt3a) and as denoted on day one for all remaining growth factors or small molecules. Positive control wells (100 μl/well) contained the same base medium supplemented with 2% FCS and 100 ng/ml activin A, omitting Wnt3a. Negative control wells (100 μl/well) contained the same base medium with 2% FCS, omitting both activin A and Wnt3a.
At the conclusion of four-days of culture, assay plates were washed twice with PBS, fixed with 4% paraformaldehyde (Alexis Biochemical; Cat #ALX-350-011) at room temperature for 20 minutes, then washed three times with PBS and permeabilized with 0.5% Triton X-100 (Sigma; Cat #T8760-2) for 20 minutes at room temperature. Cells were washed again three times with PBS and blocked with 4% chicken serum (Invitrogen; Cat #16110082) in PBS for 30 minutes at room temperature.

[2] = system: H1 human embryonic stem cells; assay: Single-cell monolayer assay with EGF/FGF4, serum free, no activin A (Example 10, Table 10); details: No AA (with Wnt3a), FGF none
Experimental: Briefly, clusters of H1 human embryonic stem cells were grown on reduced growth factor […]™ (Invitrogen; Cat #356231)-coated tissue culture plastic. Cultures were treated with Accutase (Sigma; Cat #A6964), using equivalent volumes of […] surface area for 5 minutes at 37° C., then gently resuspended, pelleted by centrifugation, and resuspended in MEF conditioned medium for counting. For assay seeding, cells were plated at 50,000 cells/cm^2 on reduced growth factor […]™-coated 96-well black plates (Packard ViewPlates; Cat #6005182) using volumes of 100 μl/well. Cells were allowed to attach and recover log phase growth over a 3 to 5 day period, feeding daily with MEF conditioned medium supplemented with 8 ng/ml bFGF (R&D Systems; Cat #233-FB). Plates were maintained at 37° C., 5% CO2 in a humidified box throughout the duration of assay.
Stocks of EGF and FGF4 were prepared in a 96-well polypropylene plate (Corning, Inc.; Cat #3960). Compound 22 was available as a 5 mM stock solubilized in 100% DMSO (Sigma; Cat #D2650) and stored at −80° C. Assays were initiated by aspirating culture medium from each well followed by three washes in PBS to remove residual growth factors and serum. […]
On the second day of assay, wells were again aspirated and fed with 80 μl per well were added back containing RPMI 1640 base medium supplemented with 2.5% fatty acid free BSA, 10 ng/ml bFGF, and 3.125 μM Compound 22 plus 20 μl 5× stock of growth factors to yield a final concentration of 2% fatty acid free BSA, 8 ng/ml bFGF and 2.5 μM Compound 22 in assay. Positive control wells contained the same base medium supplemented with 2% fatty acid free BSA, 8 ng/ml bFGF and 100 ng/ml recombinant human activin A. Negative control samples contained the same base medium supplemented with 2% fatty acid free BSA and 8 ng/ml bFGF but omitted treatment with activin A.
(§2) At the conclusion of four-days of culture, assay plates were washed twice with PBS, fixed with 4% paraformaldehyde (Alexis Biochemical; Cat #ALX-350-011) at room temperature for 20 minutes, then washed three times with PBS and permeabilized with 0.5% Triton X-100 (Sigma; Cat #T8760-2) for 20 minutes at room temperature. Cells were washed again three times with PBS and blocked with 4% chicken serum (Invitrogen; Cat #16110082) in PBS for 30 minutes at room temperature. Primary antibody (goat anti-human SOX17; R&D Systems; cat #AF1924) was diluted 1:100 in 4% chicken serum and added to each well for one hour at room temperature. Alexa Fluor 488 conjugated secondary antibody (chicken anti-goat IgG; Molecular Probes; Cat #AZ1467) was diluted 1:200 in PBS and added to each sample well after washing three times with PBS. To counterstain nuclei, 4 μg/ml Hoechst 33342 (Invitrogen; Cat #H3570) was added for ten minutes at room temperature. Plates were washed once with PBS and left in 100 μl/well PBS for imaging.
(§3) Imaging was performed using an IN Cell Analyzer 1000 (GE Healthcare) utilizing the 51008bs dichroic for cells stained with Hoechst 33342 and Alexa Fluor 488. Exposure times were optimized from positive control wells and from untreated negative control wells stained with secondary antibody alone. Images from 15 fields per well were acquired to compensate for any cell loss during the bioassay and subsequent staining procedures. Measurements for total cell number and total SOX17 intensity were obtained from each well using IN Cell Developer Toolbox 1.7 (GE Healthcare) software. Segmentation for the nuclei was determined based on gray-scale levels (baseline range 100-300) and nuclear size. Averages and standard deviations were calculated for each replicate data set. Total SOX17 protein expression was reported as total intensity or integrated intensity, defined as total fluorescence of the cell multiplied by the area of the cell. Background was eliminated based on acceptance criteria of gray-scale ranges between 200 to 3500. […]

[3] = system: H1 human embryonic stem cells; assay: Primary screening: definitive endoderm differentiation in the absence of activin A, cell number and SOX17 (Example 3); details: 2.5 μM compound, 20 ng/ml Wnt3a days 1-2, no activin A, four-day assay
Experimental: as §1, with “Briefly, clusters” for “Clusters”, “#1356231)-coated” for “#356231)-coated”, “Cat” for “Cat #Cat”
The compounds tested were made available as 5 mM stocks in 96-well plate format, solubilized in 100% DMSO (Sigma; Cat #D2650) and stored at −80° C. The library compounds were further diluted to an intermediate concentration of 0.2 mM in 50 mM HEPES (Invitrogen; Cat #15630-080), 20% DMSO and stored at 4° C. Test conditions were performed in triplicate, feeding on alternate days over a four-day assay period. Primary screening assays were initiated by aspirating culture medium from each well followed by three washes in PBS (Invitrogen; Cat #14190) to remove residual growth factors and serum. On the first day of assay, test volumes of 200 μl per well were added back containing DMEM:F12 base medium (Invitrogen; Cat #11330-032) supplemented with 0.5% FCS (HyClone; Cat #SH30070.03) and 20 ng/ml Wnt3a (R&D Systems; Cat #1324-WN) plus 2.5 μM test compound. On the third day of assay, test volumes of 200 μl per well were added back containing DMEM:F12 base medium supplemented with 2% FCS plus 2.5 μM test compound, without Wnt3a. Positive control samples contained the same base medium supplemented with FCS, substituting 100 ng/ml recombinant human activin A (PeproTech; Cat #120-14) for the test compound throughout the four-day assay along with Wnt3a (20 ng/ml) added only on days 1 and 2. Negative control samples contained DMEM:F12 base medium supplemented with FCS, adding Wnt3a on days 1 and 2 but omitting activin A.
as §2, with “PBS (Invitrogen; Cat #14190),” for “PBS,”, “Cat” for “cat”, “counter stain” for “counterstain”
as §3, with “size.” for “size. Averages and standard deviations were calculated for each replicate data set. Total SOX17 protein expression was reported as total intensity or integrated intensity, defined as total fluorescence of the cell multiplied by the area of the cell. Background was eliminated based on acceptance criteria of gray-scale ranges between 200 to 3500.”

Molecule	increase in SOX17 expression (% of the activin A/Wnt3a control) [1] [%]	Cell Number, % of positive control ([2]; EGF(50 ng/ml)) [%]	Cell Number, Average Total Cell Number ([2]; EGF(50 ng/ml))	Sox17 Expression, % of positive control ([2]; EGF(50 ng/ml)) [%]	Sox17 Expression, Average Total Intensity ([2]; EGF(50 ng/ml))	Cell Number, % of positive control ([2]; EGF(100 ng/ml)) [%]	Cell Number, Average Total Cell Number ([2]; EGF(100 ng/ml))	Sox17 Expression, % of positive control ([2]; EGF(100 ng/ml)) [%]	Sox17 Expression, Average Total Intensity ([2]; EGF(100 ng/ml))	Cell Number: % of positive control [3]	Sox17 Expression: % of positive control [3]	Sox17 Expression: Average Total Intensity [3]	Cell Number: Average Total Cell Number ([3]; positive control 100 ng/ml activin A + Wnt3a)
EGF: growth factor purchased from R&D Systems	34	43.85	5558	18.44	5.01E+07	53.79	6818	23.62	6.42E+07	–	–	–	–
CC(C)(C)OC(=O)NCCc1cccc(Nc2ncnc(-c3ccnc(C#CCO)c3)n2)c1 [Compound 3, 1,1-Dimethylethyl {2-[3-({4[2-(3-hydroxyprop-1-yn-1-yl)pyridin-4-yl]-1,3,5-triazin-2-yl}amino)phenyl]ethyl}carbamate]	–	–	–	–	–	–	–	–	–	133.82 % of positive control	−0.73 % of positive control	−2.34E+06	14211
